Laboratory results published in PMC8953592, “Mechanism of Action and Therapeutic Potential of the β-Hairpin Antimicrobial Peptide Capitellacin from the Marine Polychaeta Capitella teleta” (Marine Drugs, 2022).
Positions of bridges follow the written chain, without caps; N, C: chain ends. Residues, ends and D or L forms follow the SMILES beside them.

Tests used:
Gram-positive bacteria = details: Gram-positive test strains
Gram-negative bacteria = details: Gram-negative test strains
E. coli MDR CI 1057 = assay type: cell-based
E. coli ATTC 25922 = details: ATTC 25922, 24 h
[1] = tested on: Micrococcus luteus B-1314; details: B-1314, 24 h
P. aeruginosa PAO1 = details: PAO1, 24 h
E. cloacae CI 4172 = details: CI 4172, 24 h
K. pneumonia ATCC 700603 = details: ATCC 700603, 24 h
E. coli CI 3600 = details: CI 3600, 24 h
[2] = tested on: Staphylococcus aureus 209P; details: 24 h
A. baumanii CI 2675 = details: 24 h
E. coli CI 214 = details: CI 214, 24 h
Bacillus subtilis B-886 = details: B-886, 24 h
E. coli ML-35p [3] = details: 24 h
E. coli ML-35p [4] = tested on: E. coli ML-35p; design: method as in 2 sources, one per row (each row's own in cited_ref): ref 4, 19, 27 = [4]; PMID 33291782; doi:10.3390/md18120620; 4. Panteleev P.V. Tsarev A.V. Safronova V.N. Reznikova O.V. Bolosov I.A. Sychev S.V. Shenkarev Z.O. Ovchinnikova T.V. Structure Elucidation and Functional Studies of a Novel β-Hairpin Antimicrobial Pe || [19]; PMID 26814379; doi:10.1002/psc.2843; 19. Panteleev P.V. Bolosov I.A. Ovchinnikova T.V. Bioengineering and Functional Characterization of Arenicin Shortened Analogs with Enhanced Antibacterial Activity and Cell Selectivity J. Pept. Sci. 2 || [27]; PMID 25558400; doi:10.32607/20758251-2014-6-4-99-109; 27. Shamova O.V. Orlov D.S. Balandin S.V. Shramova E.I. Tsvetkova E.V. Panteleev P.V. Leonova Y.F. Tagaev A.A. Kokryakov V.N. Ovchinnikova T.V. Acipensins—Novel Antimicrobial Peptides from Leukocytes ||| ref 4 = [4]; PMID 33291782; doi:10.3390/md18120620; 4. Panteleev P.V. Tsarev A.V. Safronova V.N. Reznikova O.V. Bolosov I.A. Sychev S.V. Shenkarev Z.O. Ovchinnikova T.V. Structure Elucidation and Functional Studies of a Novel β-Hairpin Antimicrobial Pe; details: at a concentration several-fold higher than MIC; cited from earlier work
human red blood cells = assay: Hemolytic assay (hemoglobin release); details: human erythrocytes
Method: To examine the ability of the peptides to permeabilize cytoplasmic membranes of bacterial and mammalian cells, the ONPG test and hemolysis assay were used, respectively. […] The hemolytic activity of AMPs against a suspension of human erythrocytes was determined by the method of double serial dilution in buffered saline followed by incubation for 1.5 h (Figure 2A). […] Next, we used ONPG assay to estimate E. coli inner membrane permeabilization by the peptides.
The hemolytic activity of compounds was performed using human red blood cells (hRBS), in accordance with the previously described approach. Briefly, hRBS of a healthy donor were separated from fresh blood and washed 3 times with ice-cold phosphate-buffered saline (PBS pH 7.4) and centrifuged at 500× g for 10 min; additionally, citrate buffer was added to prevent clotting. Further, supernatant was discarded and erythrocyte suspension was prepared in PBS as 8% (v/v) solution. The test was carried out in the 96-well plate, taking into account two-fold serial dilutions of studied peptides. […] Then the plate was centrifuged at 1000× g for 15 min for the precipitation of erythrocyte. The amount of hemoglobin release was determined by absorption spectroscopy at 405 nm. Triton X-100 (0.1% v/v) was used as a positive control, which underwent a complete lysis of erythrocytes, and PBS working solution was used as a negative control. The percentage hemolysis was calculated by the following formula: Hemolysis (%)=OD405(compound)− OD405 (zero lysis)/OD405(100 % lysis)− OD405 (zero lysis)×100%
The assays were conducted three times. The quantitative data were presented as an average means with standard deviations.

For `CC[C@H](C)[C@@H]1NC(=O)[C@@H](NC(=O)[C@@H](NC(=O)[C@@H](N)CCCNC(=N)N)C(C)C)CSSC[C@@H](C(=O)N[C@@H](Cc2c[nH]c3ccccc23)C(=O)O)NC(=O)[C@H](CCCNC(=N)N)NC(=O)[C@H](CCCNC(=N)N)NC(=O)[C@H](Cc2ccc(O)cc2)NC(=O)[C@@H]2CSSC[C@H](NC(=O)[C@H](C(C)C)NC(=O)[C@H](CCCNC(=N)N)NC1=O)C(=O)N[C@@H](CCCNC(=N)N)C(=O)N[C@@H](CC(N)=O)C(=O)NCC(=O)N[C@@H](C(C)C)C(=O)N2` [CT4], the “Geometric mean (GM) of the peptide MICs” value (Gram-positive bacteria) was 6.35 µM and the “Geometric mean (GM) of the peptide MICs” value (Gram-negative bacteria) was 0.59 µM.
In the case of polymyxin B, the “Initial MIC value” (E. coli MDR CI 1057; E. coli MDR CI 1057, Mueller–Hinton medium containing added NaCl, before passages) was 0.125 µM and the “increase in MIC value after 9 passages” value (E. coli MDR CI 1057; E. coli MDR CI 1057, after just 9 passages) was 64 fold.
For `CC[C@H](C)[C@@H]1NC(=O)[C@@H](NC(=O)[C@H](Cc2c[nH]c3ccccc23)NC(=O)[C@@H](N)CCCCN)CSSC[C@@H](C(=O)N[C@@H](CCCNC(=N)N)C(=O)O)NC(=O)[C@H](CCCNC(=N)N)NC(=O)[C@H](CCCNC(=N)N)NC(=O)[C@H](Cc2ccc(O)cc2)NC(=O)[C@@H]2CSSC[C@H](NC(=O)[C@H](C(C)C)NC(=O)[C@H](CCCNC(=N)N)NC1=O)C(=O)N[C@@H](CCCNC(=N)N)C(=O)N[C@@H](CC(N)=O)C(=O)NCC(=O)N[C@@H](C(C)C)C(=O)N2` [CT5], the “Geometric mean (GM) of the peptide MICs” value (Gram-positive bacteria) was 12.7 µM, the “Minimum Inhibitory Concentration” value (E. coli ATTC 25922) was 0.5 µM and the “Minimum Inhibitory Concentration” value [1] was 8 µM. The “Minimum Inhibitory Concentration” value (P. aeruginosa PAO1) was 4 µM, the “Minimum Inhibitory Concentration” value (E. cloacae CI 4172) was 4 µM and the “Minimum Inhibitory Concentration” value (K. pneumonia ATCC 700603) was 4 µM. For the same compound, the “Minimum Inhibitory Concentration” value (E. coli CI 3600) was 0.5 µM, the “Minimum Inhibitory Concentration” value [2] was 8 µM and the “Minimum Inhibitory Concentration” value (A. baumanii CI 2675) was 0.5 µM. The “Minimum Inhibitory Concentration” value (E. coli CI 214) was 0.5 µM, the “Minimum Inhibitory Concentration” value (Bacillus subtilis B-886) was 32 µM and the “Minimum Inhibitory Concentration” value (E. coli ML-35p [3]) was 0.5 µM. The “Geometric mean (GM) of the peptide MICs” value (Gram-negative bacteria) was 1.09 µM.
For arenicin-1, the “membrane permeabilization after 60 min” value (E. coli ML-35p [4]) is given as “almost full membrane permeabilization”.
In the case of `CC(C)[C@@H]1NC(=O)CNC(=O)[C@H](CC(N)=O)NC(=O)[C@H](CCCNC(=N)N)NC(=O)[C@@H]2CSSC[C@H](NC1=O)C(=O)N[C@@H](Cc1ccc(O)cc1)C(=O)N[C@@H](CCCNC(=N)N)C(=O)N[C@@H](CCCNC(=N)N)C(=O)N[C@H](C(=O)N[C@@H](Cc1c[nH]c3ccccc13)C(=O)O)CSSC[C@H](NC(=O)[C@@H](NC(=O)[C@@H](N)CCCNC(=N)N)C(C)C)C(=O)N[C@@H](Cc1ccccc1)C(=O)N[C@@H](CCCNC(=N)N)C(=O)N[C@@H](C(C)C)C(=O)N2` [CT6], the “Geometric mean (GM) of the peptide MICs” value (Gram-positive bacteria) was 6.35 µM and the “Geometric mean (GM) of the peptide MICs” value (Gram-negative bacteria) was 0.55 µM.
For `CC[C@H](C)[C@@H]1NC(=O)[C@@H](NC(=O)[C@@H](NC(=O)[C@@H](N)CCCNC(=N)N)C(C)C)CSSC[C@@H](C(=O)N[C@@H](Cc2c[nH]c3ccccc23)C(=O)O)NC(=O)[C@H](CCCNC(=N)N)NC(=O)[C@H](CCCNC(=N)N)NC(=O)[C@H](Cc2ccc(O)cc2)NC(=O)[C@@H]2CSSC[C@H](NC(=O)[C@H](C(C)C)NC(=O)[C@H](CCCNC(=N)N)NC1=O)C(=O)N[C@@H](Cc1ccc(O)cc1)C(=O)N[C@@H](CCCNC(=N)N)C(=O)NCC(=O)N[C@@H](C(C)C)C(=O)N2` [CT7] (H-RVCIRVCYRGVCYRRCW-OH; disulfide 3-16, 7-12), the “Geometric mean (GM) of the peptide MICs” value (Gram-positive bacteria) was 2 µM, the “Minimum Inhibitory Concentration” value (E. coli ATTC 25922) was 0.25 µM and the “Minimum Inhibitory Concentration” value [1] was 1 µM. The “Minimum Inhibitory Concentration” value (P. aeruginosa PAO1) was 1 µM, the “Minimum Inhibitory Concentration” value (E. cloacae CI 4172) was 2 µM and the “Minimum Inhibitory Concentration” value (K. pneumonia ATCC 700603) was 4 µM. For the same compound, the “Minimum Inhibitory Concentration” value (E. coli CI 3600) was 0.25 µM, the “Minimum Inhibitory Concentration” value [2] was 2 µM and the “Minimum Inhibitory Concentration” value (A. baumanii CI 2675) was 0.125 µM. For the same compound, the “maximum level of lysis (hemolysis)” value (human red blood cells; 128 μM peptide, 1.5 h incubation, PBS, 37 °C, absorbance 405 nm, Triton X-100 = 100%) was roughly 50%, the “Minimum Inhibitory Concentration” value (E. coli CI 214) was 0.25 µM and the “Minimum Inhibitory Concentration” value (Bacillus subtilis B-886) was 4 µM. The “Minimum Inhibitory Concentration” value (E. coli ML-35p [3]) was 0.5 µM and the “Geometric mean (GM) of the peptide MICs” value (Gram-negative bacteria) was 0.55 µM.
For protegrin-1, the “membrane permeabilization after 60 min” value (E. coli ML-35p [4]) is listed as “almost full membrane permeabilization”.
For `CC[C@H](C)[C@@H]1NC(=O)[C@@H](NC(=O)[C@@H](NC(=O)[C@H](CCCNC(=N)N)NC(=O)[C@@H]2CCCN2C(=O)[C@H](CO)NC(=O)[C@@H](N)CCCNC(=N)N)C(C)C)CSSC[C@@H](C(=O)N[C@@H](Cc2c[nH]c3ccccc23)C(=O)NCC(=O)O)NC(=O)[C@H](CCCNC(=N)N)NC(=O)[C@H](CCCNC(=N)N)NC(=O)[C@H](Cc2ccc(O)cc2)NC(=O)[C@@H]2CSSC[C@H](NC(=O)[C@H](C(C)C)NC(=O)[C@H](CCCNC(=N)N)NC1=O)C(=O)N[C@@H](CCCNC(=N)N)C(=O)N[C@@H](CC(N)=O)C(=O)NCC(=O)N[C@@H](C(C)C)C(=O)N2` [CT2], the “Geometric mean (GM) of the peptide MICs” value (Gram-positive bacteria) was 3.17 µM and the “Geometric mean (GM) of the peptide MICs” value (Gram-negative bacteria) was 0.46 µM.
With `CC[C@H](C)[C@@H]1NC(=O)[C@@H](NC(=O)[C@@H](NC(=O)[C@H](CCCNC(=N)N)NC(=O)[C@@H]2CCCN2C(=O)[C@@H](N)CO)C(C)C)CSSC[C@@H](C(=O)N[C@@H](Cc2c[nH]c3ccccc23)C(=O)NCC(=O)O)NC(=O)[C@H](CCCNC(=N)N)NC(=O)[C@H](CCCNC(=N)N)NC(=O)[C@H](Cc2ccc(O)cc2)NC(=O)[C@@H]2CSSC[C@H](NC(=O)[C@H](C(C)C)NC(=O)[C@H](CCCNC(=N)N)NC1=O)C(=O)N[C@@H](CCCNC(=N)N)C(=O)N[C@@H](CC(N)=O)C(=O)NCC(=O)N[C@@H](C(C)C)C(=O)N2` [Cap, capitellacin] the “Geometric mean (GM) of the peptide MICs” value (Gram-positive bacteria) was 8 µM, the “hemolytic effect after 24 h exposure” value (human red blood cells; 128 µM, 24 h) was 50% and the “concentration above which toxic effect was observed after 24 h” value (human red blood cells; 24 h, 32 µM = 64× MIC) was “above 32 µM”. For the same compound, the “Geometric mean (GM) of the peptide MICs” value (Gram-negative bacteria) was 1 µM.
With `CC[C@H](C)[C@@H]1NC(=O)[C@@H](NC(=O)[C@@H](NC(=O)[C@H](CCCNC(=N)N)NC(=O)[C@@H]2CCCN2C(=O)[C@@H](N)CO)C(C)C)CSSC[C@@H](C(=O)N[C@@H](Cc2c[nH]c3ccccc23)C(=O)O)NC(=O)[C@H](CCCNC(=N)N)NC(=O)[C@H](CCCNC(=N)N)NC(=O)[C@H](Cc2ccc(O)cc2)NC(=O)[C@@H]2CSSC[C@H](NC(=O)[C@H](C(C)C)NC(=O)[C@H](CCCNC(=N)N)NC1=O)C(=O)N[C@@H](CCCNC(=N)N)C(=O)N[C@@H](CC(N)=O)C(=O)NCC(=O)N[C@@H](C(C)C)C(=O)N2` [CT3] the “Geometric mean (GM) of the peptide MICs” value (Gram-positive bacteria) was 10.08 µM and the “Geometric mean (GM) of the peptide MICs” value (Gram-negative bacteria) was 1.09 µM.
